Reference: PMC9405123, “Design, Synthesis and Mechanistic Studies of Novel Isatin-Pyrazole Hydrazone Conjugates as Selective and Potent Bacterial MetAP Inhibitors” (Antibiotics, 2022)
In brackets after ≈: the same amount, converted by molar mass.

What was measured:
[1] = tested on: K. pneumoniae; assay: Growth inhibition screening (broth dilution); type: cell-based, Klebsiella pneumonia
Method: (§1) In vitro screening of the compounds (PS1–14) was performed to assess the antibacterial activity against three Gram-positive (Staphylococcus aureus, Enterococcus faecalis and Bacillus subtilis,) and three Gram-negative (Pseudomonas aeruginosa, Klebsiella pneumonia and Escherichia coli) bacterial strains using the standard NCCLS broth dilution assay. The study’s standard drugs were ciprofloxacin (CIP) and ampicillin (AMP). Compounds were dissolved in a polar solvent (DMSO) and distributed into a 96-well plate in 200 µL of nutrient broth medium, with a final concentration of the compounds […] in each well. The bacterial cells (about 2.5 × 10^5 cells/mL) were inoculated into each well and incubated at 37 °C overnight. After incubation, the growth was measured by turbidity of the culture at 590 nm by spectrophotometer.

[2] = target: EfMetAP1a (Enterococcus faecalis, UniProt Q832M5); assay: MetAP enzyme inhibition, Morrison Ki (Met-AMC fluorescence); type: biochemical; conditions: Morrison Ki method
[3] = tested on: E. faecalis; assay: Growth inhibition screening (broth dilution); type: cell-based, Enterococcus faecalis
Method: as §1

[4] = tested on: K. pneumoniae; assay: Minimum bactericidal concentration; type: cell-based, Klebsiella pneumonia
[5] = tested on: P. aeruginosa; assay: Minimum bactericidal concentration; type: cell-based, Pseudomonas aeruginosa
[6] = tested on: E. coli; assay: Growth inhibition screening (broth dilution); type: cell-based, Escherichia coli
Method: as §1

[7] = tested on: B. subtilis; assay: Growth inhibition screening (broth dilution); type: cell-based, Bacillus subtilis
Method: as §1

[8] = tested on: S. aureus; assay: Minimum bactericidal concentration; type: cell-based, Staphylococcus aureus
[9] = tested on: E. coli; assay: Minimum bactericidal concentration; type: cell-based, Escherichia coli
[10] = tested on: P. aeruginosa; assay: Minimum inhibitory concentration (broth dilution); type: cell-based; conditions: Pseudomonas aeruginosa, alone
[11] = target: SpMetAP1a (Streptococcus pneumoniae, UniProt Q8DPV1); assay: MetAP enzyme inhibition, Morrison Ki (Met-AMC fluorescence); type: biochemical; conditions: Morrison Ki method
[12] = tested on: B. subtilis; assay: Minimum bactericidal concentration; type: cell-based, Bacillus subtilis
[13] = target: T1, HsMetAP1b (Homo sapiens, UniProt P53582); assay: MetAP enzyme inhibition, Morrison Ki (Met-AMC fluorescence); type: biochemical, H. sapiens; conditions: Morrison Ki method
T1 construct: made in house

[14] = tested on: E. faecalis; assay: Minimum inhibitory concentration (broth dilution); type: cell-based; conditions: Enterococcus faecalis, alone
[15] = tested on: K. pneumoniae; assay: Minimum inhibitory concentration (broth dilution); type: cell-based, Klebsiella pneumonia; conditions: Klebsiella pneumoniae, alone, read-out: MIC
[16] = target: T2, MtMetAP1c (Mycobacterium tuberculosis, UniProt P9WK19); assay: MetAP enzyme inhibition, Morrison Ki (Met-AMC fluorescence); type: biochemical, M. tuberculosis; conditions: Morrison Ki method
T2 construct: made in house
Method: MetAP appears to serve a vital role in the co- or post-translational modification of proteins, making it essential for bacterial cell metabolism and survival. In this study, all enzymes, which were used for this study, including MtMetAP1c (M. tuberculosis), EfMetAP1a (E. faecalis), SpMetAP1a (S. pneumoniae) and HsMetAP1b (H. sapiens) enzymes, were expressed and purified in our lab as previously reported. All compounds prepared 10 mM stocks in DMSO and were used for enzyme inhibition studies. The concentration of each enzyme is adjusted such that they have similar reaction rates (HsMetAp1b, 1 µM; SpMetAP1a, 5 µM; EfMetAP1a, 1 µM; MtMetAP1c, 1 µM;) as reported earlier. All assays were performed in […] reaction containing 50 mM HEPES (pH 7.5 for SpMetAP1a and HsMetAP1b; 8.0 for EfMetAP1a, MtMetAP1c, […]), 150 mM NaCl, and CoCl2 (three molar equivalents of corresponding enzymes). The reaction was started by adding 50 μM L-Methionine 7-amido-4-methyl coumarin (Met-AMC) and continuously monitoring the fluorescence of released 7-amino-4-methyl coumarin (AMC) (380 nm excitation and 460 nm emission) in a microplate multimode reader (TECAN, Austria). The maximum percentage of inhibition against enzymes is calculated at […] compound concentration. […] The Ki values were determined according to the Morrison method using three different concentrations of substrates and ten different concentrations of the inhibitor. All experiments were performed in triplicate. GraphPad Prism version 8.0.0 (San Diego, CA, USA) was used to determine all the kinetic parameters.

[17] = tested on: P. aeruginosa; assay: Growth inhibition screening (broth dilution); type: cell-based, Pseudomonas aeruginosa
Method: as §1

[18] = tested on: S. aureus; assay: Growth inhibition screening (broth dilution); type: cell-based, Staphylococcus aureus
Method: as §1

[19] = tested on: B. subtilis; assay: Minimum inhibitory concentration (broth dilution); type: cell-based; conditions: Bacillus subtilis, alone
[20] = tested on: E. coli; assay: Minimum inhibitory concentration (broth dilution); type: cell-based, Escherichia coli; conditions: Escherichia coli, alone, read-out: MIC
[21] = tested on: E. faecalis; assay: Minimum bactericidal concentration; type: cell-based, Enterococcus faecalis
[22] = tested on: S. aureus; assay: Minimum inhibitory concentration (broth dilution); type: cell-based; conditions: Staphylococcus aureus, alone

Sequence of SpMetAP1a (Q8DPV1 entry or part of it): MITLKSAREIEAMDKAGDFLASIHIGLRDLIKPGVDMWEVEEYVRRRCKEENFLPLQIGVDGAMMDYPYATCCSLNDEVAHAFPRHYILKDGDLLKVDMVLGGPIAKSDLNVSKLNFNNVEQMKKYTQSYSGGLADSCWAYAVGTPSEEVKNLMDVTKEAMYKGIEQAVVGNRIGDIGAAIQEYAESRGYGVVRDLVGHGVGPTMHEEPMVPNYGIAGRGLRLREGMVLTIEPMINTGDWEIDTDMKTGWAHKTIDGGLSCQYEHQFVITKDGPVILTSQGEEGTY
T2 sequence (P9WK19 whole entry): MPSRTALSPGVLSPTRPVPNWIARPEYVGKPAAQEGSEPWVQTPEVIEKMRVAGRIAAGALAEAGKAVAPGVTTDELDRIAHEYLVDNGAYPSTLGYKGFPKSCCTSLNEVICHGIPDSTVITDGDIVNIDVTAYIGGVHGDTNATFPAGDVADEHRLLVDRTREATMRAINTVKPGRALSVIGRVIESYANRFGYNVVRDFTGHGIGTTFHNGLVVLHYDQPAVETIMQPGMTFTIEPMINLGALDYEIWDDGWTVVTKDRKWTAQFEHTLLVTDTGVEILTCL
Sequence of EfMetAP1a (Q832M5 entry or part of it): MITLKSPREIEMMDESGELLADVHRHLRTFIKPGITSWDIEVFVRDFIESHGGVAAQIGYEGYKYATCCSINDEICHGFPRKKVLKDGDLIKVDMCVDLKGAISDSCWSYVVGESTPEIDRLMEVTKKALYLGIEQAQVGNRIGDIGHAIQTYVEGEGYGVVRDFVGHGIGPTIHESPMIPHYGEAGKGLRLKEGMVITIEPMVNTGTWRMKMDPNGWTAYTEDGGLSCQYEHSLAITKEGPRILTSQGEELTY

COc1ccc2c(c1)/C(=N\NC(=O)c1cc(-c3cccc(Br)c3)n[nH]1)C(=O)N2 [PS11, (E)-3-(3-Bromophenyl)-N′-(5-Methoxy-2-Oxoindolin-3-Ylidene)-1H-Pyrazole-5-Carbohydrazide]
inhibition at 250 µg/mL ([1]; Klebsiella pneumoniae): ≥ 94%
% Growth Inhibition at 250 µg/mL ([1]; listed as C00011): 95%
Ki [2]: 2490 ± 310 nM
inhibition at 250 µg/mL ([3]; Enterococcus faecalis): ≥ 94%
% Growth Inhibition at 250 µg/mL ([3]; listed as C00011): 100%
MBC/MIC Ratio (R*) [4]: 1
MBC ([4]; Klebsiella pneumoniae): 32 µg/mL (≈ 72.7 µM)
MBC/MIC Ratio (R*) [5]: 4
MBC ([5]; Pseudomonas aeruginosa): 128 µg/mL (≈ 291 µM)
inhibition at 250 µg/mL ([6]; Escherichia coli): ≥ 94%
% Growth Inhibition at 250 µg/mL ([6]; listed as C00011): 97%
melting point: 245 to 248 °C
inhibition at 250 µg/mL ([7]; Bacillus subtilis): ≥ 94%
% Growth Inhibition at 250 µg/mL ([7]; listed as C00011): 100%
MBC/MIC Ratio (R*) [8]: >4
MBC ([8]; Staphylococcus aureus): > 512 µg/mL
MBC/MIC Ratio (R*) [9]: 2
MBC ([9]; Escherichia coli): 256 µg/mL (≈ 581 µM)
MIC [10]: 32 µg/mL (≈ 72.7 µM)
Ki [11]: 1360 ± 170 nM
MBC/MIC Ratio (R*) [12]: 2
MBC ([12]; Bacillus subtilis): 512 µg/mL (≈ 1160 µM)
Ki [13]: 15200 ± 3200 nM
MIC [14]: 32 µg/mL (≈ 72.7 µM)
MIC [15]: 32 µg/mL (≈ 72.7 µM)
Ki [16]: 1610 ± 250 nM
inhibition at 250 µg/mL ([17]; Pseudomonas aeruginosa): ≥ 94%
% Growth Inhibition at 250 µg/mL ([17]; listed as C00011): 96%
inhibition at 250 µg/mL ([18]; Staphylococcus aureus): ≥ 94%
% Growth Inhibition at 250 µg/mL ([18]; listed as C00011): 98%
MIC [19]: > 256 µg/mL
MIC [20]: 128 µg/mL (≈ 291 µM)
MBC/MIC Ratio (R*) [21]: 1
MBC ([21]; Enterococcus faecalis): 32 µg/mL (≈ 72.7 µM)
MIC [22]: 128 µg/mL (≈ 291 µM)
